Laboratory results reported in patent publication US20170035824A1, “USAGE OF OBLONGIFOLIN C, A NATURAL COMPOUND FROM GARCINIA YUNNANENSIS HU, ON TREATING CANCER AS METASTASIS INHIBITOR AND AUTOPHAGIC FLUX INHIBITOR” (Hong Kong Baptist University, priority 2013, published 2017).
Structures can show the parent of a compound that is named as a salt.

Experiments:
[1] = tested on: HeLa cells; test: Western blot for cleaved Caspase 3 in DMEM or EBSS medium; assay type: cell-based; conditions: DMEM and EBSS, 24 hours, FIG. 14
Procedure: Samples were analyzed by western blotting for cleaved Caspase 3, LC3 and SQSTM1. GAPDH was used as a loading control.
(§1) Cells were lysed in ice-cold whole cell extract buffer (50 mM pH8.0 Tris-HCl, 4M urea and 1% TritonX-100), supplemented with complete protease inhibitor mixture (Roche Diagnostics, 04693132001). Cell extracts were resolved by SDS-PAGE gel electrophoresis and transferred to a nitrocellulose membrane. After blocking with 5% non-fat milk in Tris-buffered saline containing 0.2% Tween-20, the membranes were probed with the following antibodies: LC3B (sigma, L7543), SQSTM1/p62 (MBL, PM045), GAPDH (Proteintech, 10494-1-AP), CASP3 (Cell signaling, #9962). Following incubation with horseradish peroxidase coupled secondary anti-mouse (KPL, 074-1806) or anti-rabbit antibodies (KPL, 474-1506), protein bands were visualized using ECL Blotting Detection Reagents (KPL, 54-61-00).
(§2) Cells were treated with Oblongifolin C then cultured in complete (DMEM with serum) or nutrient deprived medium (EBSS) for 24 hours. The cells were fixed in 70% ethanol in PBS overnight. For cell cycle distribution, cells were counterstained with propidium iodide and analyzed for DNA content by use of a BD Influx™ flow cytometer.

[2] = tested on: human colorectal cancer cell lines; conditions: previous studies (Feng et al. 2012; Huang et al. 2009); cited from earlier work
[3] = tested on: human colon cancer cells (HCT116); test: GFP-LC3 translocation; assay type: cell-based; conditions: HCT116, 10 μM, 24 hours, FIG. 7
Procedure: (§3) MEF, HeLa, CNE, HCT116, MCF7 and HepG2 cells were transfected with pEGFP-LC3 plasmid using lipofectamine 2000 (Invitrogen, 11668-019). One day after transfection, cells were treated with 10 μM Oblongifolin C for 24 hours prior to fixation. Image acquisition was done using an Olympus FV1000 confocal microscope. The number of GFP-LC3 dots was counted from at least 150 cells from randomly placed positions within each sample.

[4] = tested on: human breast cancer cells (MCF7); test: GFP-LC3 translocation; assay type: cell-based; conditions: MCF7, 10 μM, 24 hours, FIG. 7
Procedure: as §3

[5] = tested on: human nasopharyngeal cancer cells (CNE); test: GFP-LC3 translocation; assay type: cell-based; conditions: 10 μM, 24 hours, FIG. 7
Procedure: as §3

[6] = tested on: human hepatocytes (HepG2); test: GFP-LC3 translocation; assay type: cell-based; conditions: HepG2, 10 μM, 24 hours, FIG. 7
Procedure: as §3

[7] = tested on: mouse embryonic fibroblast cells (MEF); test: GFP-LC3 translocation; assay type: cell-based; conditions: 10 μM, 24 hours, FIG. 7
Procedure: as §3

[8] = tested on: HeLa cells stably expressing GFP-LC3; test: Live cell imaging and colocalization analysis (GFP-LC3 / LysoTracker Red); assay type: cell-based; conditions: OC 15 μM or HCQ 50 μM, 8 hours, FIG. 11
Procedure: Live cell images of GFP-LC3 and LysoTracker Red were taken using Olympus confocal microscope. The enlarged images show the colocalization of two signals.
(§4) For lysotracker staining, HeLa or MEF cells grown on coverslips were stained with 50 nM Lysotracker Red DND-99 (Molecular Probes, Invitrogen, L7528) in pre-warmed medium for 20 min at 37° C. All of the samples were examined under an Olympus FV1000 confocal microscope (Olympus) equipped with a 63×oil immersion objective. The confocal images were acquired using FV10-ASW 2.0 software. Calculation of Pearson's correlation coefficient (PCC) was applied to quantify colocalization. PCC was calculated by FV10-ASW 2.0 software between the stack of images from two channels.

[9] = tested on: ECA109 cells; test: Transwell assay (cell migration); assay type: cell-based, human; conditions: ECA109, 24 hours, FIG. 3
Procedure: (§5) Human esophageal cancer cell line ECA109 were maintained in RPMI1640 (Gibco/Invitrogen) supplemented with 10% fetal bovine serum (Invitrogen), 100 U/ml penicillin-streptomycin (Gibco/ Invitrogen, 15140-122), within a humidified atmosphere containing 5% CO2 at 37° C.
Cell migration was also determined using a transwell (Corning) with pore size of 8 μm. 5×10^4 cells that were seeded in serum-free medium in the upper chamber, while medium containing 10% FBS in the lower chamber. After incubating for 24 hours at 37° C., cells in the upper chamber were carefully removed with a cotton swab and the cells that had traversed to reverse face of the membrane were fixed in methanol, stained with Giemsa, and counted.

[10] = tested on: HeLa cells; test: Flow cytometry (propidium iodide), complete vs nutrient-deprived medium; assay type: cell-based; conditions: OC 5 μM, EBSS vs DMEM, 24 hours, FIG. 13
Procedure: (§6) The cells were fixed and stained with propidium iodide (PI).
(§7) HeLa, HCT116, CNE, MCF7, MDA-MB-231, HepG2 and MEFs were maintained in Dulbecco's modified Eagle's medium (Gibco/Invitrogen, 12800-017) supplemented with 10% fetal bovine serum 100U/m1 penicillin-streptomycin (Gibco/ Invitrogen, 15140-122) at 37° C. in a humidified 5% CO2 incubator. For nutrient starvation, HeLa or CNE cells cultured in DMEM were washed three times with PBS, then cultured in Earle's Balanced Salt Solution (EBSS, Sigma, E6132) for indicated time point.
as §2

[11] = tested on: CNE cells; test: as above; assay type: cell-based, human; conditions: OC 5 μM, EBSS vs DMEM, 24 hours, FIG. 13
Procedure: as §6, §7, §2

[12] = tested on: HeLa cells; test: Western blot for endogenous LC3 / SQSTM1; assay type: cell-based
Procedure: (§8) GAPDH was used as a loading control. An image J densitometric analysis of the LC3-II/GAPDH ratio from LC3 immunoblots was shown.
(§9) Samples were analyzed by western blotting for endogenous SQSTM1 and GAPDH. An image J densitometric analysis of the SQSTM1/GAPDH ratio from immunoblots was shown.
as §1

[13] = tested on: ECA109 cells; test: Anti-invasion assay (Matrigel assay); assay type: cell-based, human; conditions: ECA109, 72 hr, FIG. 4
Procedure: as §5
Cell invasion was determined using Matrigel (BD) coated transwell (Corning) with pore size of 8 μm. 5×10^4 cells that were seeded in serum-free medium in the upper chamber, while medium containing 10% FBS in the lower chamber. After incubating for 72 hr at 37° C., cells in the upper chamber were carefully removed with a cotton swab and the cells that had traversed to reverse face of the membrane were fixed in methanol, stained with Giemsa, and counted.

[14] = tested on: HeLa cells xenograft; test: Anti-cancer activity in vivo, cervical cancer xenograft; set-up: species or system BALB/c nude mice; conditions: for tumor size versus vehicle treated mice: HeLa xenograft, intratumoral once every 2 days, seven injections, OC 12 μg, Etopside 4 μg
Procedure: Four weeks old nude mice were engrafted with HeLa cells and observed until tumors reached ˜100 mm^3. Tumor-bearing mice were then treated vehicle, OC (12 μg) or Etopside (4 μg) […] by intratumoral once every 2 days for a total of seven injections. Mice were killed and tumors resected and weighed 2 days after the final injection.
Four-week-old BALB/c nude mice were purchased from the Experimental Animal
Center of Chinese Academy of Science (Shanghai, China) and kept in pathogen free environment at Experimental Animal Center in Shanghai University of Traditional Chinese Medicine. The mice have an average weight of 20 g. Approximately 2×10^6 HeLa cells were injected into the left and right sides of the animals. Two weeks later, 15 mice bearing tumors around 100 mm^3 in volume were randomly divided into vehicle control, etoposide (positive control) and oblongifolin C-treated groups. The mice were administered via intratumoral injection at the dose of 4 μg etopside or 12 μg OC in 200 μl solvent (0.05% DMSO, 0.05% Tween-80 in PBS) once every two days for two weeks. The tumor size was measured over a period of two weeks.

[15] = tested on: HeLa-LC3-GFP cells; test: GFP-LC3 translocation and quantitative analyses; assay type: cell-based; conditions: OC 5, 10 and 20 μM, 24 hours, FIG. 5 and 6
Source text: MEF, HeLa, CNE, HCT116, MCF7 and HepG2 cells were transfected with pEGFP-LC3 plasmid using lipofectamine 2000 (Invitrogen, 11668-019). […] Image acquisition was done using an Olympus FV1000 confocal microscope. The number of GFP-LC3 dots was counted from at least 150 cells from randomly placed positions within each sample.

[16] = tested on: MEF; test: Live cell imaging and colocalization analysis (GFP-LC3 / LysoTracker Red); assay type: cell-based, mouse; conditions: OC 15 μM, 8 hours, FIG. 12
Procedure: The colocalization of GFP-LC3 and LysoTracker Red were analyzed by confocal microscopy. The enlarged images show the colocalization of two signals.
as §4

[17] = tested on: MEF cells; test: Western blot for endogenous LC3 / SQSTM1; assay type: cell-based, mouse
Procedure: as §8, §9, §1

[18] = tested on: lysosomal proteolytic activity; test: Lysosomal proteolytic activity / autophagic flux; assay type: cell-based
[19] = tested on: ECA109 cells; test: Wound healing assay; assay type: cell-based, human; conditions: ECA109, 24 hours, FIG. 2
Procedure: as §5
ECA109 cells were seeded on 12-well plates at a density of 1×10^5 cells/well. After the cells reached sub-confluence, the mono-layer cells were wounded by scraping off the cells and then grown in medium for 24 hours. The migrated distance of cells was monitored and imaged under a microscope.

[20] = literature background; cited from earlier work

In the case of `CC(C)=CCC/C(C)=C/C[C@@H]1C[C@]2(CC=C(C)C)C(=O)[C@@](CC=C(C)C)(C(=O)C(C(=O)c3ccc(O)c(O)c3)=C2O)[C@@]1(C)CCC=C(C)C` [Oblongifolin C], the “Caspase 3 cleavage” value [1] is given as “resulted in Caspase 3 and cleavage in concentration-dependent manner”, the “relative potency among PPAP compounds” value [2] is given as “most potent PPAP compound” and the GFP-LC3 puncta formation [3] is given as “could regulate GFP-LC3 puncta formation”. The GFP-LC3 puncta formation [4] was “could regulate GFP-LC3 puncta formation”, the GFP-LC3 puncta formation [5] was “could regulate GFP-LC3 puncta formation” and the GFP-LC3 puncta formation [6] was “could regulate GFP-LC3 puncta formation”. For the same compound, the GFP-LC3 puncta formation [7] was “could regulate GFP-LC3 puncta formation”, the “autophagosome-lysosome fusion (colocalization of GFP-LC3 and LysoTracker Red)” value (“autophagosome-lysosome fusion” for short) [8] was “block autophagosome-lysosome fusion” and the “cell migration through transwell” value [9] was “suppress ECA109 cells migration through transwell at concentration dependent manner”. For the same compound, the “apoptosis of nutrient-deprived cancer cells” value [10] was “sensitizes nutrient-deprived cancer cells to apoptosis”, the “apoptosis of nutrient-deprived cancer cells” value [11] was “sensitizes nutrient-deprived cancer cells to apoptosis” and the “amount of LC3-II protein (FIG. 10; autophagic flux)” value ([12]; OC 15 μM over a time period, FIG. 10) was “increase the amount of LC3-II protein in a time-dependent manner”. For the same compound, the “amount of LC3-II protein (time dependence)” value ([12]; OC 15 μM, 0, 4, 8, 12 and 24 hours, FIG. 9) was “increase the amount of LC3-II protein in a time-dependent manner”, the “amount of LC3-II protein (dose dependence)” value ([12]; OC 2, 5, 10 and 25 μM, 24 hours, FIG. 8) was “increase the amount of LC3-II protein in a dose-dependent manner” and the “cell invasion through matrigel” value [13] was “suppress ECA109 cells invasion through matrigel at a concentration dependent manner”. For the same compound, the “anticancer effect in cervical cancer xenograft” value ([14]; 12 μg OC intratumoral once every two days for two weeks, FIG. 15) was “anticancer effect similar to etopside”, the “tumor size versus vehicle treated mice” value [14] was “smaller than those of vehicle treated mice” and the “effective dosage for mouse” value ([14]; based on 12 μg given to 20 g mouse) was 0.6 mg/kg. For the same compound, the “tumor markers in cervical cancer xenograft mouse model (Caspase 3, LC3, SQSTM1, lysosomal cathepsins)” value ([14]; cervical cancer xenograft mouse model) was “increased Casepse 3 cleavage, LC3 and SQSTM1 accumulation, and reduced expression of lysosomal cathepsins”, the GFP-LC3 puncta formation [15] was “could regulate GFP-LC3 puncta formation at concentration dependent manner” and the “autophagosome-lysosome fusion” value [16] was “block autophagosome-lysosome fusion”. For the same compound, the “amount of LC3-II protein (time dependence)” value ([17]; MEF, OC 15 μM, 0, 4, 8, 12 and 24 hours, FIG. 9) was “increase the amount of LC3-II protein in a time-dependent manner”, the “amount of LC3-II protein (dose dependence)” value ([17]; MEF, OC 2, 5, 10 and 25 μM, 24 hours, FIG. 8) was “increase the amount of LC3-II protein in a dose-dependent manner” and the “amount of LC3-II protein (FIG. 10; autophagic flux)” value ([17]; MEFs, OC 15 μM over a time period, FIG. 10) was “increase the amount of LC3-II protein in a time-dependent manner”. The “autophagic flux and lysosomal proteolytic activity” value [18] was “blocks both autophagic flux and lysosomal proteolytic activity” and the “wound healing (migrated distance of cells)” value [19] was “suppressed the wound healing in a concentration dependent manner”.
For `CCN(CCO)CCCC(C)Nc1ccnc2cc(Cl)ccc12` (centres unmarked) [HCQ, hydroxychloroquine sulfate, reference compound], the “autophagosome-lysosome fusion” value [8] was “block autophagosome-lysosome fusion”.
For `CC(C)=CCC[C@]1(C)C=Cc2c(O)c3c(c(CC=C(C)C)c2O1)O[C@]12C(=C[C@@H]4C[C@H]1C(C)(C)O[C@@]2(C/C=C(/C)C(=O)O)C4=O)C3=O` [GA, gambogic acid], the toxicity [20] is given as “induces toxicity to the liver and kidney”.
For `COc1cc([C@@H]2c3cc4c(cc3[C@@H](O[C@@H]3O[C@@H]5CO[C@@H](C)O[C@H]5[C@H](O)[C@H]3O)[C@H]3COC(=O)[C@H]23)OCO4)cc(OC)c1O` [Etop, etoposide, reference compound], the “tumor size versus vehicle treated mice” value [14] was “smaller than those of vehicle treated mice”.
